Like-named read-outs stand apart in the source and are kept apart here.

The text below walks through data of US4308396A, “Thromboxane A2 analogues” (priority 1979, dated 1981).

One data set relates to blood platelets. Particulars: cited from earlier work; for effect on platelet aggregation: Gorman et al, Fitzpatrick et al.
Another data set concerns cat coronary arteries. Put plainly: Cat coronary artery constriction (perfused right coronary artery, constriction induced by endoperoxide analogues). Format: cell-based. As to conditions: for inhibition at 0.1 µM: analogue 100 nM. The method, then: Thromboxane A2 analogues (up to 4 μl of a 2.5 mM solution in ethanol) were tested for their effects on cat coronary arteries continuously prefused with 10 ml Krebs-Henseleit solution as described below.
Cats of either sex (2.5-3.5 kg) were anesthetized with sodium pentobarbital (30 mg/kg) given intravenously. Hearts were reapidly excised and placed in oxygenated (95% O2 +5% CO2) ice-cold Krebs-Henseleit (K-H) solution of the following millimolar composition: NaCl, 118; KCl, 4.75; CaCl2.H2 O, 2.54; KH2 PO4, 1.19; MgSO4.7H2 O, 1.19; NaHCO3, 12.5; glucose, 10.00. A 20-gauge stainless steel cannula was inserted into the right coronary artery via the coronary ostium. Distal to the cannula, approximately 1 cm of coronary artery was dissected free of surrounding tissue. The section of right coronary artery with the cannula in place was excised from the heart and immediately transferred to a constant flow perfusion apparatus.
(§1) The perfusion apparatus consists of a reservoir containing 20 ml of warm (37° C.) oxygenated (95% O2 +5% CO2) K-H solution which bathes the coronary artery and serves as recirculating perfusate. An increase in perfusion pressure indicates vasoconstriction, whereas a decrease in perfusion pressure signifies vasodilation. Following an initial 1 hr. equilibrium period, vascular responsiveness was established by adding 25 mM KCl. After washing with fresh K-H solution for 20-30 minutes, the preparation achieved a relatively constant low basal tone. Basal perfusion pressure averaged 50±2.5 mm Hg. Fresh K-H dilutions of stock thromboxane analog concentrations were added to the perfusate reservoir in 0.1-0.2 ml volumes. Changes in perfusion pressure in response to thromboxane analogue addition generally plateaus within 5 minutes of administration. Constriction of the arteries was induced by addition of 15 or 30 nM 9,11-azo-prostaglandinendoperoxide (azo-PGH2), or 1 μM 9,11-methanoepoxy-PGH2. These compounds and their effects are described in the following references: Corey et al, PNAS, U.S.A. 72, 3355 (1975); Bundy, G. L., Tetr.Lett, 1957 (1975); Malmsten, C., Life Sci, 18, 169 (1976) and Smith, J. B., et al, in Platelets and Thrombosis, Ed. by Mills, D.C.B. et al, Academic Press, London/N.Y. 1977, pp 83-95. The effect of thromboxane analogues on the release of cathepsin D from the cat liver large granule fraction was determined as described in Lefer, A. M. et al, Science 200, 52 (1978). The effect of thromboxane analogues on the release of cathepsin D from the cat liver large granule fraction was determined as described in Lefer, A. M. et al, Science 200, 52 (1978).

The subject of data set [1] is smooth muscle, blood vessels. As to conditions: cited from earlier work.
For data set [2] the following is noted: cited from earlier work.
The subject of data set [3] is human platelets. Put plainly: Platelet aggregation in citrated human platelet-rich plasma. Format: cell-based. The method, then:
(§2) Platelet aggregation was studied in an aggregometer (Chronolog Corp., Phila., PA) using 0.5 ml citrated human platelet-rich plasma at 35° C. One minute after addition of analogue (up to 2 μl of a 25 mM solution in ethanol) aggregation was initiated by addition of sodium arachidonate (0.3-0.5 mM), ADP (2 μM) collagen (1 μg/ml), epinephrine (50 μM), 9,11-azo-PGH2, (0.1-0.6 μM), 9,11-methanoepoxy-PGH2, (0.3-0.6 μM), or 9,11-epoxy methano-PGH2 (1-3 μM). The analogues were also tested for their effects on the inhibition of ADP-induced aggregation by 2 nM prostacyclin or 20 nM prostaglandin D2.

Data set [4] addresses T1, thromboxane synthetase (Oryctolagus cuniculus, UniProt G1TAZ9).
T1 sequence (G1TAZ9 1-530): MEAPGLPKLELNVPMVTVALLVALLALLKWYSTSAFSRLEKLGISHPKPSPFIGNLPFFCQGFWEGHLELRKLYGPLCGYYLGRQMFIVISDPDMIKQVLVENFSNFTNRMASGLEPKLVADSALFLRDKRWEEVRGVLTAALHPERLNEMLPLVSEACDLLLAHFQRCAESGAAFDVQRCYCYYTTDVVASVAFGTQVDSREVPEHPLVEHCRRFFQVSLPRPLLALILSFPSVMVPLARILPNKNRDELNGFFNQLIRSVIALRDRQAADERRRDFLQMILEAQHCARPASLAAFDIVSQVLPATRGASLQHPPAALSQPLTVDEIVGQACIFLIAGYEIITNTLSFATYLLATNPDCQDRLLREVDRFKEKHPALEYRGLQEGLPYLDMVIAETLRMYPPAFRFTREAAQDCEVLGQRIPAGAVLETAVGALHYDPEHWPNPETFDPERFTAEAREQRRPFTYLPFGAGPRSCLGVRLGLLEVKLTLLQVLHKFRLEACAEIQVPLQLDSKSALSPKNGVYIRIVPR
The data set can be described thus: Thromboxane synthesis from 1-14C-arachidonic acid by washed rabbit platelets. Format: cell-based. The method, then: (§3) To study the effects of analogues on thromboxane synthesis, rabbit platelets were washed free of plasma, resuspended in buffered saline solution and incubated at 37° C. for 5 minutes with analogues at either 10 μM or 100 μM. Radioactive 1-^14 C-arachidonic acid (0.5 μCi, SA 50 Ci/mol, New England Nuclear, Boston, Mass.) was added and incubation was continued for 15 minutes, lipids were extracted by the method of Folch, J. Biol. Chem. 226, 497 (1957), and subjected to thin layer chromatography. In additional experiments, human platelet-rich plasma was incubated at 37° C. in the aggregometer for 1 minute with analogues. Sodium arachidonate (0.4 mM) was added and incubation was continued for 5 minutes. The samples were decanted into one-tenth vol. 100 mM EDTA, centrifuged for 2 minutes at 15,000 g, and thromboxane B2 in the supernatant was determined by radioimmunoassay.

For another data set, the system named is Prostacyclin Synthetase. The data set can be described thus: Prostacyclin synthetase, sheep vesicular glands, 1-14C-arachidonic acid as substrate. Format: biochemical. As to conditions: 100 μM; Table 1. The method, then:
The effects of analogues on prostacyclin synthetase were determined using sheep vesicular glands as the enzyme source and 1-^14 C-arachidonic acid as substrate essentially as described by Cottee, F. et al, in Prostaglandins, 14, 413 (1978).

The subject of data set [5] is human platelets. Put plainly: Effect on the inhibition of ADP-induced platelet aggregation by prostacyclin or prostaglandin D2. Format: cell-based. The procedure: as §2
In data set [6] the target is Thromboxane Synthetase. The data set can be described thus: Thromboxane synthetase inhibition (Table 1). Format: biochemical. Particulars: read-out: Inhibits Thromboxane Synthetase, ID50. The method, then:
as §3

In data set [7] the test system is thromboxane synthetase. Put plainly: Thromboxane B2 formation in human platelet-rich plasma (radioimmunoassay). Format: cell-based. As to conditions: 50 μM. The procedure: as §3
A further data set deals with cyclooxygenase. Put plainly: Effect on cyclooxygenase, washed rabbit platelets. Format: cell-based. As to conditions: inferred from prostaglandin increases. The procedure:
as §3

Another data set has as its system cat liver lysosomes. The data set can be described thus: Release of cathepsin D from cat liver large granule fraction (lysosome stabilization). Format: cell-based. Particulars: 1 μM. The method, then:
as §1, with “These compounds and their effects are described in the following references: Corey et al, PNAS, U.S.A. 72, 3355 (1975); Bundy, G. L., Tetr.Lett, 1957 (1975); Malmsten, C., Life Sci, 18, 169 (1976) and Smith, J. B., et al, in Platelets and Thrombosis, Ed. by Mills, D.C.B. et al, Academic Press, London/N.Y. 1977, pp 83-95.” left out, “(1978).” for “(1978). The effect of thromboxane analogues on the release of cathepsin D from the cat liver large granule fraction was determined as described in Lefer, A. M. et al, Science 200, 52 (1978).”

For the molecule `CCCCCC/C=C/C1C2CC(ON2)C1C/C=C\CCCC(=O)O` (stereo not shown) [15-deoxy-9,11-epoxyimino-PGH2], the “effect on platelet aggregation” value with blood platelets is recorded as “inhibits platelet aggregation”.

As for `CCCCCC(O)C=CC1C2CC(N=N2)C1CC=CCCCC(=O)O` (stereo not shown) [9,11-azo-PGH2, 9, 11-azo prostaglandin endoperoxide, reference compound], the “effect on platelet aggregation” value with blood platelets was “has aggregating activity”. Also, the “Mean constriction at 15 nM 9,11-azo-PGH2” value with cat coronary arteries (15 nM, three experiments) is 32 mm Hg. Moreover, in the data set on cat coronary arteries (30 nM, three experiments), the “Mean constriction at 30 nM 9,11-azo-PGH2” value was 53 mm Hg.

In the case of `CCCCCCC=CC1C2CC(N=N2)C1CC=CCCCC(=O)O` (stereo not shown) [15-deoxy-9,11-azo-PGH2], the “effect on platelet aggregation” value with blood platelets is “inhibits platelet aggregation”.

Take `CCCCC[C@H](O)/C=C/[C@H]1O[C@H]2C[C@H](O2)[C@@H]1C/C=C\CCCC(=O)O` [TA2, thromboxane A2]: the “smooth muscle constricting properties” value in [1] is “smooth muscle constricting”. Further, in the data set with blood platelets, the thrombotic properties entry is reported as “potent thrombotic”. In data set [2] (pH 7.4 and 37° C.), the “half-life under physiological conditions” value is given as 30 seconds.

`CCCCCC(O)C=CC1CC2CC(C1CC=CCCCC(=O)O)C2(C)C` (single isomer, unassigned) [16R epimer of the analogue III (R^1 =R^2 =--OH), Pinane Thromboxane A2, free acid]: the “effectiveness as a prostaglandin endoperoxide antagonist, relative to the 16S epimer” value with human platelets [3] (compared with 16S epimer) is listed as “approximately ten times less effective”.

For `CCCCCC(O)C=CC1CC2CC(C1CC=CCCCC(=O)O)C2(C)C` (single isomer, unassigned) [III (R^1 =R^2 =OH, 16S), Pinane Thromboxane A2, free acid], the inhibition at 10 µM at thromboxane synthetase [4] (10 μM, read-out: inhibition of thromboxane B2 formation from 1-14C-arachidonic acid) worked out at 23%. Further, the inhibition at 100 µM on thromboxane synthetase [4] (100 μM, read-out: inhibition of thromboxane B2 formation from 1-14C-arachidonic acid) was determined as 83%. Besides, at thromboxane synthetase [4] (with thromboxane B2 inhibition), the “radioactive prostaglandins E2, D2 and F2 α” value is recorded as “corresponding increases”. The “effect on Prostacyclin Synthetase” value in the data set with Prostacyclin Synthetase is “no effect”. Moreover, the “effect on the inhibition of aggregation by prostaglandin D2” value in the data set on human platelets [5] (10 μM) was “nor did it affect”. Besides, in the data set on human platelets [5] (Table 1), the “effect on the Inhibition of Platelet Aggregation by Prostacyclin” value is given as “no effect” and the “effect on the Inhibition of Platelet Aggregation by Prostaglandin D2” value is given as “no effect”. Besides, in the data set on human platelets [3] (10 μM), the “platelet aggregation induced by arachidonic acid” value is “abolished”, the “platelet aggregation induced by collagen” value is on record as “partially inhibited”, the “primary aggregation induced by ADP” value is reported as “did not inhibit” and the “primary aggregation induced by epinephrine” value is listed as “did not inhibit”. Moreover, in the data set on human platelets [3] (10 μM), the “second wave of aggregation induced by ADP” value is “abolished” and the “second wave of aggregation induced by epinephrine” value was “abolished”. The “arachidonic acid-induced aggregation in human platelet-rich plasma” value in the data set with human platelets [3] (50 μM) was “abolished”. In addition, in the data set on human platelets [3] (1-15 μM, dose-dependent), the “aggregation induced by 9,11-azo-PGH2” value is “inhibited”, the “aggregation induced by 9,11-epoxymethano-PGH2” value is on record as “inhibited” and the “aggregation induced by 9,11-methanoepoxy-PGH2” value is reported as “inhibited”. Besides, the IC50 with human platelets [3] (Homo sapiens, Platelet, Table 1, read-out: Inhibits Aggregation by Prostaglandin Endoperoxide Analogues, ID50) came to 2000 nM. For the same molecule, the IC50 at Thromboxane Synthetase [6] was 50000 nM. Further, in the data set with thromboxane synthetase [7], the “reduction of thromboxane B2 formation in human platelet-rich plasma” value came out at 50%. Also, the effect on cyclooxygenase entry in the data set with cyclooxygenase is on record as “not on cyclooxygenase”. In addition, in the data set with cat liver lysosomes (4 experiments), the “inhibition of the release of cathepsin D from cat liver lysosomes” value is reported as “significant inhibition (p<0.005)”. Moreover, the “Stabilizes Lysosomes” value in the data set with cat liver lysosomes (Table 1) was “Stabilizes Lysosomes”. Further, in the data set on cat coronary arteries (Felis catus, Table 1, read-out: Inhibits Coronary Artery Contraction by Prostaglandin Endoperoxide Analogues, ID50), the IC50 was 100 nM. In addition, the inhibition at 0.1 µM in the data set with cat coronary arteries (Felis catus, read-out: reduction of constriction induced by 15 nM 9,11-azo-PGH2) came to 73%. Besides, in the data set on cat coronary arteries (Felis catus, read-out: reduction of constriction induced by 30 nM 9,11-azo-PGH2), the inhibition at 0.1 µM is 50%. In the data set on cat coronary arteries (analogue 1 μm), the “constriction induced by 30 nM 9,11-azo-PGH2” value was “abolished”.

`CCCCCC(O)C=CC1C(O)CC2OC(=CCCCC(=O)O)CC21` (stereo not drawn) [Prostacyclin, 6,9α-oxido-11α, 15α-dihydroxyprosta (Z) 5, E(13)-dienoic acid]: in [1], the “dilation of blood vessels” value was “powerful action as a dilator of blood vessels”. Also, the “effect on platelet aggregates after they have formed” value with blood platelets is listed as “destroys platelet aggregates after they have formed”. Besides, in the data set on blood platelets (compared with all prostaglandins discovered to date), the “inhibition of blood platelet aggregation” value is listed as “most potent inhibitor of blood platelet aggregation”. In data set [2] (pH 7.4), the “half-life under physiological conditions” value is “about 2 minutes”.
